Columns and labels:
[1] = system: HLA-DR expression on MCC cell lines; assay: Flow cytometry assessment of HLA-DR expression in MCC lines at baseline and after IFN-γ; format: cell-based, human; conditions: MCC-301 line
Method: FIG. 1N is a graph showing flow cytometry assessment of HLA-DR expression in all 11 MCC lines, both at baseline (light pink) and after IFN-γ treatment (red).
Cells were dissociated with Versene and incubated with 5 μL Human TruStain FcX (Fc receptor blocking solution; Biolegend, Dedham, Mass.) per million cells in […] at room temperature for 10 min. Fluorochrome-conjugated antibodies or respective isotype controls were immediately added and incubated for another 30 min at 4° C. Cells were then washed once with PBS and resuspended in PBS containing 4% paraformaldehyde and analyzed on LSR Fortessa cytometers. Additional steps were described for individual experiments as below. For upregulation of HLA Class I experiment, 5×10^5 MCC cells were treated with increasing doses of IFNα2b, IFN3, IFNγ for 24 hours, or MEK inhibitors and DMSO for 72 hours before staining with W6/32 and Live/Dead as above.

[2] = system: class I pathway and IFN-γ pathway proteins (STAT1/p-STAT1) in MCC lines; assay: Whole proteome analysis (TMT LC-MS/MS) of MCC lines with and without IFNγ; format: cell-based, human; conditions: MCC lines non-IFN-responsive by flow cytometry
Method: FIG. 2D is a proteomics heatmap depicting the relative expression of key IFN-γ pathway components in 4 of the MCC lines, both at baseline and after IFN-γ treatment.
FIG. 2E comprises graphs summarizing a targeted analysis of normalized STAT1 peptide counts (left) and STAT-Y701y phosphosite counts (right) between untreated and IFN-γ-treated cell lines.
Protein expression of MCC cell lines was assessed as described previously (Mertins et al. (2018) Nature Protocols 13 (7): 1632-61. Briefly, cell pellets of MCC cell lines with and without IFNγ treatment were lysed in 8M Urea and digested to peptides using LysC and Trypsin (Promega). 400 μg peptides were labeled with TMT10 reagents (Thermo Fisher, 126-MCC290, 127N-MCC350_IFN, 127C MCC275_IFN, 128N MCC275, 128C MCC350, 129N_MCC301_IFN, 129C-MCC277, 130N-MCC290_IFNy, 130C MCC277 IFN, 131 MCC301) and then pooled for subsequent fractionation and analysis. Pooled peptides were separated into 24 fractions using offline high pH reversed phase fractionation. 1 μg per fraction was loaded onto an analytical column (20-30 cm, 1.9 μm C18 Reprosil beads (Dr. Maisch HPLC GmbH), packed in-house PicoFrit 75 μM inner diameter, 10 μM emitter (New Objective)). […] During data dependent acquisition, peptides were analyzed on a Fusion Lumos (Thermo Scientific). […]

Substance: IFN-y: type II interferon, recombinant human, used to treat MCC cells
- HLA-DR expression [1]: inducible HLA-DR expression
- STAT1/p-STAT1 protein expression [2]: lack of IFN-induced STAT1/p-STAT1 protein expression
